Source: US8691946B2, “Methods and compositions for soft tissue repair” (Affinergy, LLC, priority 2009, dated 2014)
Ends that are not written are not given here.

Legend:
[1] = system: human ASCs (adipose-derived mesenchymal stem cells); assay: Biotinylated peptide binding by flow cytometry (Neutravidin-PE); conditions: biotinylated peptide 25 μM, 30 min, 4° C.
Description: (§1) The synthetic biotinylated cell binding peptide SEQ ID NO: 4 was examined for its ability to specifically bind MSCs compared to a number of other cells types including adipose-derived mesenchymal stem cells (ASCs), dermal fibroblasts, rodent MSCs, red blood cells, monocytes, lymphocytes and granulocytes. The cell binding peptide was biotinylated as described herein at Example 2. Cultured cells of each type were either purchased (ASCs and dermal fibroblasts) or isolated from rodent bone marrow (rodent MSCs) or human blood. Cells were first harvested and resuspended at 10^6/mL in PBS+2% fetal bovine serum (FBS). An aliquot of cells (50 μL) was incubated in 50 μL of peptide solution (25 μM in PBS+FBS) for 30 min at 4° C. Cells were then washed twice in PBS+FBS with 300×g centrifugation for 5 min between washes. Fluorescently-tagged neutravidin (Neutravidin-PE from INVITROGEN) was then added to the cells to label biotinylated peptide bound to cells. Neutravidin-PE was diluted 1:250 from stock and applied at 50 μL to cells. Cells were then washed in PBS+FBS, and acquired on a BD […]. Peptide reactivity was then measured as percent positivity relative to Neutravidin-PE staining without the addition of biotinylated peptide.

[2] = system: human MSCs; assay: as above; conditions: biotinylated peptide 25 μM, 30 min, 4° C.
Description: as §1

[3] = system: dermal fibroblasts; assay: as above; parameters: species or system human; conditions: biotinylated peptide 25 μM, 30 min, 4° C.
Description: as §1

[4] = system: endothelial colony forming cells (ECFCs); assay: Biotinylated peptide binding to endothelial and other cells by flow cytometry; parameters: species or system human; conditions: biotinylated peptide 10 μM
Procedure: (§2) The synthetic biotinylated binding peptide SEQ ID NO: 4 was further examined for its ability to bind endothelial cells compared to other cell types (see FIG. 16). […] ECFCs are clonally expanded cells isolated from human umbilical cord blood, and are considered highly proliferative endothelial progenitor cells (EPCs) based on their clonogenic and proliferative potential. In another experiment, binding peptide SEQ ID NO: 4 was assayed for its ability to selectively isolate endothelial cells versus smooth muscle cells in the presence of whole blood. HUVECs or UASMCs were incubated in the presence of medium containing 20% whole blood and binding peptide SEQ ID NO: 4-conjugated magnetic beads (via biotin-SA) for 30 min. The solutions containing the bead-peptide-cell complexes were then passed through a […] LS column in a magnetic field. The column was washed, and the remaining peptide-bound cells were then released from the magnetic field and counted.

[5] = system: peripheral blood cells; assay: as above; parameters: species or system human; conditions: biotinylated peptide 10 μM
Procedure: as §2

[6] = system: human umbilical vein endothelial cells (HUVECs); assay: as above; conditions: biotinylated peptide 10 μM
Procedure: as §2

[7] = system: umbilical artery smooth muscle cells (UASMCs); assay: as above; conditions: biotinylated peptide 10 μM
Procedure: as §2

[8] = system: HUVECs or UASMCs; assay: Selective isolation of endothelial versus smooth muscle cells with peptide-conjugated magnetic beads in whole blood; format: cell-based, human; conditions: medium containing 20% whole blood, 30 min
Procedure: as §2

[9] = system: human MSCs; assay: Capture of cultured MSCs on peptide-coated streptavidin microbeads (LS columns); format: cell-based; conditions: 160,000 cultured human MSCs
Procedure: In this experiment the ability of the biotinylated cell binding peptide SEQ ID NO: 4 to capture human MSCs from a homogeneous cultured cell population was examined. The cell binding peptide SEQ ID NO: 4 was biotinylated as described herein at Example 2. The cell binding peptide SEQ ID NO: 4, and a non-binding control peptide, were added to separate 300 μl volumes of […] BIOTEC Streptavidin microbeads at a concentration of 20 μM. These beads are made from iron filings, coated with a dextran coating which is functionalized with streptavidin moieties. Peptide was incubated with beads for 45 min on ice. The 300 μl of peptide coated microbeads were added to pre-equilibrated LS columns outside of the magnetic field to evenly distribute the magnetic beads throughout the columns. Columns were then placed into a magnetic field, and excess peptide was washed away with buffer while retaining the peptide coated microbeads. Cultured and expanded human MSCs from bone marrow aspirate (160,000 cells; LONZA) were added to each LS column and allowed to pass through by gravity flow. Flowthrough was collected and cycled through the columns 5 times, after which the columns were washed with 5 ml buffer. […] The collected flowthrough with 5 ml wash and eluted cells were spun down, resuspended in a smaller volume, and counted by hemacytometer (see FIG. 17). […]

[10] = system: MSCs from bone marrow aspirate; assay: Capture of MSCs from bone marrow aspirate with biotinylated peptide and magnetic beads (CFU); format: cell-based
Procedure: This experiment was performed to examine the ability of cell binding peptide SEQ ID NO: 4 to capture MSCs directly from bone marrow aspirate in comparison to two separate antibodies against the CD105 I antigen (CD105) and the MSCA-1 stem cell antigen (MSCA-1). This experiment employed biotinylated peptides with streptavidin-coated […] magnetic beads. The peptides were biotinylated as described herein at Example 2. […] For the antibody capture experiment, magnetic beads having covalently attached CD105 or MSCA-1 antibody were employed ([…]). Prior to incubation with the peptides and antibodies, bone marrow aspirate (BMA) was mixed with 5 volumes of 10 mM ammonium chloride for 1-2 min at room temperature to lyse red blood cells. The lysate was centrifuged for 5 min at 300×g and the supernatant discarded. The cell pellet was washed with wash buffer (PBS+0.5% bovine serum albumin+0.5 mM EDTA) and cells were resuspended in […] peptide at a concentration of 10^8 per mL. For peptide binding studies, the cell suspension was incubated with the biotinylated peptides for 30 min at 4° C. to allow for binding. After incubation, cells were spun down at 300×g for 5 min, and peptide solution was aspirated. Cells were then rinsed twice with wash buffer, with centrifugation between washes. […] Colony forming units (CFUs) were counted after 14 days in culture. […]

[11] = system: HUVECs; assay: Endothelial cell phenotype and anti-thrombogenic protein secretion (flow cytometry, ELISA); format: cell-based, human; conditions: HUVECs on collagen with 10 μM free peptide, 24 hours
Procedure: Once immobilized on a vascular graft, endothelial cells must retain their characteristic properties of promoting endothelialization. Therefore, the phenotype, viability, and anti-thrombogenic protein expression profiles were evaluated for endothelial cells in the presence of collagen modified with the endothelial cell binding peptide SEQ ID NO: 4 (generated according to Example 7 using BS^3 reagent). […] Specifically, HUVECs were plated on SEQ ID NO: 4 peptide-modified collagen, collagen with 10 μM free SEQ ID NO: 4 peptide or collagen alone for 24 hours. Flow cytometry was performed using a BD […], and ELISAs were performed according to manufacturers instructions. (FIGS. 22A & 22B). Tissue-type Plasminogen Activator (t-PA) and 6-keto Prostaglandin F1a protein expression levels secreted in this assay are aligned with other reports on cultured HUVECS (Kimura and Yokoi-Hayashi, Biochim Biophys Acta, 1996, 1310:1-4; Merhi-Soussi et al., J Leukoc Biol, 2000, 68:881-9).

[12] = system: MSCs captured from bone marrow; assay: Adipocyte differentiation of captured MSCs (Oil Red O); format: cell-based; conditions: 21 days adipocyte differentiation medium
Procedure: After capture of MSCs using cell binding peptide SEQ ID NO: 4 with the […] magnetic system according to Example 6, the ability of the captured cells to differentiate into an adipocyte lineage was examined. The MSCs present in the […] column eluants (see Example 6) were cultured for 21 days in complete medium (DMEM, 10% FBS, 100 units/mL penicillin, 100 μg/mL streptomycin, and 2 mM glutamine) supplemented with 0.5 mM isobutyl methylxanthine, 1 μM dexamethasone, 10 μM insulin, 200 μM indomethacin, and 1% antibiotic/antimycotic. Following the 21 day incubation, the cells were fixed in 4% paraformaldehyde in PBS for 15 minutes, washed in 60% isopropanol for 5 minutes, and stained with Oil Red O (SIGMA) for 10 minutes to determine the extent of adipogenesis (see FIG. 26, panels A (undifferentiated MSCs) and panel B (adipocyte differentiated MSCs)). The image of the adipose differentiated cells (FIG. 26, panel B) contains a larger magnification inset where the lipid vacuoles are clearly visible.

[13] = system: MSCs captured from bone marrow; assay: Osteoblast differentiation of captured MSCs (Alizarin Red S); format: cell-based; conditions: 14 days osteoblast differentiation medium
Procedure: For osteogenic differentiation, the MSCs present in the […] column eluants (see Example 6) were cultured for 14 days in complete medium supplemented with 0.1 μM dexamethasone, 50 μM ascorbate-2-phosphate, 10 mM β-glycerophosphate, and 1% antibiotic/antimycotic. Calcium mineralization was measured by Alizarin Red S (SIGMA) staining to reveal mineralizing osteoblasts (see FIG. 26, panel C (undifferentiated MSCs) and panel D (osteoblast differentiated MSCs)).

[14] = system: MSCs captured from bone marrow; assay: Chondrocyte differentiation of captured MSCs (aggrecan immunostaining); format: cell-based; conditions: 24 days CHONDRODIFF medium
Procedure: To examine chondrocyte differentiation, the MSCs present in the […] column eluants (see Example 6) were pelleted by centrifugation at 150×g for 5 minutes. Cells were washed once with 1 ml MACS NH CHONDRODIFF Medium without disturbing the pellet. Cells were spun again and 1 mL CHONDRODIFF Medium was added to each pellet. Every third day, medium was aspirated and replaced with fresh pre-warmed medium. After 24 days in culture, cells exposed to CHONDRODIFF medium formed cartilage plugs or nodules, whereas control cells formed only loose or small nodules. Cells were washed once with PBS and fixed in neutral buffered formalin overnight. Sections were embedded in paraffin and sectioned at 5 microns. Sections were examined by hemotoxylin and eosin staining (data not shown). Sections were further examined by immunostaining for aggrecan, a major structural component of cartilage. In FIG. 27, sections from the periphery (panels A and B) or center (panels C and D) were incubated with an antibody against aggrecan (ABCAM) (panels B and D) or with secondary detection reagents only as a control (panels A and C), then counterstained with DAPI to reveal cell nuclei. […] Control images of captured cells grown in the absence of differentiation medium could not be taken due to the small and loose nature of nodules.

Q: What does the source list for “SSFWDVCQGDGTCYGGGSR (not fully specified; cysteine pairing not given here) [SEQ ID NO: 4, tested biotinylated (C-terminal GSSGK(biotin)) or attached to substrates via spacer and lysine]”?
A: binding to human ASCs [1]: high binding; binding to human MSCs (percent positivity relative to Neutravidin-PE alone) [2]: high binding; binding to dermal fibroblasts [3]: high binding; cross-reactivity with ECFCs [4]: cross-reacted strongly; cross-reactivity with peripheral blood cells [5]: no cross-reactivity; cross-reactivity with HUVECs [6]: cross-reacted strongly; cross-reactivity with UASMCs [7]: weakly; HUVECs isolated compared to UASMCs [8]: 8 fold; capture of MSCs [9]: approximately 70%; MSC capture from bone marrow aspirate (CFUs after 14 days) ([10]; compared with CD105 and MSCA-1 antibody beads): as efficient as capture by either of the CD105 or MSCA-1 antibodies; immunoreactivity of captured cells (CD29, CD44, CD73, CD105, CD166, CD90, CD45, CD34) ([10]; compared with CD105 isolated cells): no changes were observed; endothelial cell phenotype and anti-thrombogenic protein secretion [11]: maintained their endothelial cell phenotype and their ability to secrete anti-thrombogenic proteins; adipogenesis of captured MSCs [12]: adipogenesis pathway remains intact; osteogenic differentiation of captured MSCs [13]: osteogenic pathway remains intact; aggrecan in nodules formed from captured MSCs [14]: aggrecan could be detected
